Here are results for 11 compounds from patent publication US11739064B2, “HDAC inhibitors and therapeutic methods using the same” (THE BOARD OF TRUSTEES OF THE UNIVERSITY OF ILLINOIS, priority 2015, dated 2023).

pIC50: −log10 of the molar value. Where two headings read alike, the source gives them in different places.

The target in one experiment is HDAC2 (Homo sapiens, UniProt Q92769). Put plainly: In vitro HDAC inhibition assay, HDAC2. Format: biochemical. The conditions noted are these: NI = No inhibition at a concentration of 50 pM (footnote b); read-out: HDAC isoform IC50, HDAC2.
Sequence of HDAC2 (Q92769 whole entry, canonical isoform): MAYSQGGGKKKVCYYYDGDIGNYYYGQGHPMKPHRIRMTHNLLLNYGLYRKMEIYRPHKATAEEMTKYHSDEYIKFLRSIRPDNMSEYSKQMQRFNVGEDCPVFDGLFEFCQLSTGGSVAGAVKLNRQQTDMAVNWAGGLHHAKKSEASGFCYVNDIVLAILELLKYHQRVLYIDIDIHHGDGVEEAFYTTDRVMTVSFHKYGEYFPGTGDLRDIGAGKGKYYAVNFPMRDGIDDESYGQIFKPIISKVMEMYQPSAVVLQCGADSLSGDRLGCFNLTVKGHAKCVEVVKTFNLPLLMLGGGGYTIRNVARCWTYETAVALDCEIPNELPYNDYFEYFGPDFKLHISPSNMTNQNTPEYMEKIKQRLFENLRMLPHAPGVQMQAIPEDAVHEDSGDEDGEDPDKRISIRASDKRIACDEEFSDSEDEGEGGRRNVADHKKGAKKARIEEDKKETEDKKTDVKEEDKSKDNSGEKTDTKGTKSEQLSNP
In the next experiment the target is Human HDAC1 (Homo sapiens, UniProt Q13547). Put plainly: In vitro HDAC inhibition assay, HDAC1.
Sequence of Human HDAC1 (Q13547 whole entry): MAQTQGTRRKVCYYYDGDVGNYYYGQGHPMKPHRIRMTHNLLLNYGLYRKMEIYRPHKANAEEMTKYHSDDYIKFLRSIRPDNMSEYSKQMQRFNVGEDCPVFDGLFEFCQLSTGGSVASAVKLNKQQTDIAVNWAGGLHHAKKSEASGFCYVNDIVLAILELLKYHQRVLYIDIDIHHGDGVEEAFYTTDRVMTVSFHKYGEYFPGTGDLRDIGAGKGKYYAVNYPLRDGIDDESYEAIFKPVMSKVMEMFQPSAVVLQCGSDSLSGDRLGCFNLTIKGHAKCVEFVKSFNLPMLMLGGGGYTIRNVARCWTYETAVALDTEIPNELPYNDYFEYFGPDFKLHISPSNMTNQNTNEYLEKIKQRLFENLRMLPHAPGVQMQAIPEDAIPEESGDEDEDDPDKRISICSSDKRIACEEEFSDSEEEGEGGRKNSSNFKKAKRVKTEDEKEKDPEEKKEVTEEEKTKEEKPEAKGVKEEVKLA
In the next experiment the target is T1, HDAC10 (Homo sapiens, UniProt Q969S8).
T1 sequence (Q969S8 1-669): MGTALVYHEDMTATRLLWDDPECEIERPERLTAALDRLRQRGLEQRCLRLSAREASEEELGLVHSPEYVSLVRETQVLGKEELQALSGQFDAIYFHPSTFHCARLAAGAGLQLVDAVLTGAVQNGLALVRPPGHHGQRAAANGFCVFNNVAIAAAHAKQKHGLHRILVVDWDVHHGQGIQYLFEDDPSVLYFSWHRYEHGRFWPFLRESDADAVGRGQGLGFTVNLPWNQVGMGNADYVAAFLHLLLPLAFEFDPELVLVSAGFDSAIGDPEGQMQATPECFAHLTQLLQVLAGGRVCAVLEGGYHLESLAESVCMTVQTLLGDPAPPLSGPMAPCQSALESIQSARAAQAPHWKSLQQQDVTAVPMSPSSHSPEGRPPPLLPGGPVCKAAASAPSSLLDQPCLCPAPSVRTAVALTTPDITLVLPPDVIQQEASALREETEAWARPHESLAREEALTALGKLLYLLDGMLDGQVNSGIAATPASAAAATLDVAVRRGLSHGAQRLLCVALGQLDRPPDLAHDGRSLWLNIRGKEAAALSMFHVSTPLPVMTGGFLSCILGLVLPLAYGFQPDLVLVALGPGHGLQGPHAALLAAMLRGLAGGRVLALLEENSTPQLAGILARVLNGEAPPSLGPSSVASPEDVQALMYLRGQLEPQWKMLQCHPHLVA
Put plainly: In vitro HDAC inhibition assay, HDAC10. The class given is biochemical. Particulars: NI = No inhibition at a concentration of 50 pM (footnote b); read-out: HDAC isoform IC50, HDAC10.

The next experiment has as its target T2, Human HDAC6 (Homo sapiens, UniProt Q9UBN7).
T2 construct: Full length with N-terminal GST tag, MW=159 kDa; GST (N); host or cells: baculovirus expression system, Sf9 cells
T2 sequence (Q9UBN7 1-1215): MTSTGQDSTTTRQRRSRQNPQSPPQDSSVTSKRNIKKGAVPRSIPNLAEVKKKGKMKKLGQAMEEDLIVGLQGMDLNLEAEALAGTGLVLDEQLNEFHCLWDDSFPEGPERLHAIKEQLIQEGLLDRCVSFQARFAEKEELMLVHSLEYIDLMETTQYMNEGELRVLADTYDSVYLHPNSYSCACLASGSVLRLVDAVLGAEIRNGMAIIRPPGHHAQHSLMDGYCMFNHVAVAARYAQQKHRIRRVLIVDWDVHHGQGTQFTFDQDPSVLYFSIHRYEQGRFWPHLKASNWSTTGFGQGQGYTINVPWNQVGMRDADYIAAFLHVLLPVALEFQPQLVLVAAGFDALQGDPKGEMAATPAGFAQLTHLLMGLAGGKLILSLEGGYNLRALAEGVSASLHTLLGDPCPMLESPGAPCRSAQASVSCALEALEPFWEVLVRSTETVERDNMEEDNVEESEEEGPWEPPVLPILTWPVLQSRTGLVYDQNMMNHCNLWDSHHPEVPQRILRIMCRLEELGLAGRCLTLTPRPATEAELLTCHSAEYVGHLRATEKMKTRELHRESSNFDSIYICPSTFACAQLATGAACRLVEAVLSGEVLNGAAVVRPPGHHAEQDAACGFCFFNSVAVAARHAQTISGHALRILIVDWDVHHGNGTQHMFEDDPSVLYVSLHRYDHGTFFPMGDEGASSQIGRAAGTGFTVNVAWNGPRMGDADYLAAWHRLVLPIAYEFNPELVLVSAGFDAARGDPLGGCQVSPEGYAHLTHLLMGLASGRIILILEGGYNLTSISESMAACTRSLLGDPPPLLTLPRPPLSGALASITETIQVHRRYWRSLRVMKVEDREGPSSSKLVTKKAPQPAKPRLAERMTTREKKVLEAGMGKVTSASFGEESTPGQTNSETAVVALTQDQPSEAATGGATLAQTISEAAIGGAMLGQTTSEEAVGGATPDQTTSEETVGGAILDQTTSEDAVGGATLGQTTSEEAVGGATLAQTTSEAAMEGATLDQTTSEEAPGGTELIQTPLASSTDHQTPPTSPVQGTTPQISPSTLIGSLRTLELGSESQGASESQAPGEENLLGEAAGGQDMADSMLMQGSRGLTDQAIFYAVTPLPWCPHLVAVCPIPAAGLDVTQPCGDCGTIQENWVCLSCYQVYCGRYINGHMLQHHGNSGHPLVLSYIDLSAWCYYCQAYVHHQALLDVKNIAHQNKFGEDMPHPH
Put plainly: In vitro HDAC inhibition assay, HDAC6. Format: biochemical. The conditions noted are these: read-out: HDAC isoform IC50, HDAC6.

Another experiment has as its target HDAC3/NcoR2 complex (Homo sapiens, UniProt O15379). Put plainly: In vitro HDAC inhibition assay, HDAC3. The class given is biochemical. Particulars: NI = No inhibition at a concentration of 50 pM (footnote b); read-out: HDAC isoform IC50, HDAC3.
The subject of the next experiment is L3.6pl. Put plainly: In vitro growth inhibition (GI), MTS cell proliferation assay (Table 5), L3.6pl. The class given is cell-based. The conditions noted are these: Homo sapiens, 72 hours post-treatment. (In general: Formazan colour is commonly taken as a measure of viable cells.)
The subject of the next experiment is BxPC3. Put plainly: In vitro growth inhibition (GI), MTS cell proliferation assay (Table 5), BxPC3. The class given is cell-based. Particulars: Homo sapiens, BXPC-3, 72 hours post-treatment.
The next experiment concerns PANC1 cells. Put plainly: Scratch-wound cell migration assay. The conditions noted are these: for Inhibition of cell migration, 24 h: PANC1, 24 h post wounding; for Inhibition of cell migration, 48 h: PANC1, 48 h post wounding. The class given is cell-based. Details: key to Inhibition of cell migration, 24 h / Inhibition of cell migration, 48 h: Level of inhibition (high to low): +++, ++ or +; Level of inhibition (high to low): +++, ++ or +; Level of inhibition (high to low): +++, ++ or +; no inhibition: −. Here is the method:
FIG. 2 contains photographs of PANC1 cells treated with present compounds 9 and 6 taken 24 and 48 hours (post wounding) after a scratch was made through a confluent layer of cells; and
PANC1 Cell migration and effect on T and NK Cells. The effect of HDAC6 inhibition on cell migration and cellular cytotoxicity was evaluated. […] Thus, these HDAC6-selective inhibitors could function well to block metastasis. However, in contrast to the effect observed on cell migration, none of the compounds tested affected CD8+ T cell or natural killer (NK) cell-mediated cytotoxicity, despite the ability of the compounds to substantially increase the levels of acetyl-tubulin in these cell lines.

In the next experiment the test system is acetylated alpha-tubulin. Put plainly: Accumulation of acetylated alpha-tubulin in pancreatic cancer cells. Format: cell-based. Particulars: FIG. 1A. The source says: Cell cycle and inhibition of alpha-tubulin deacetylation.
[1] abbreviates: read-out: HDAC isoform IC50, HDAC1, NI = No inhibition at a concentration of 50 pM (footnote b).

Sequence of HDAC3/NcoR2 complex (O15379 whole entry, canonical isoform): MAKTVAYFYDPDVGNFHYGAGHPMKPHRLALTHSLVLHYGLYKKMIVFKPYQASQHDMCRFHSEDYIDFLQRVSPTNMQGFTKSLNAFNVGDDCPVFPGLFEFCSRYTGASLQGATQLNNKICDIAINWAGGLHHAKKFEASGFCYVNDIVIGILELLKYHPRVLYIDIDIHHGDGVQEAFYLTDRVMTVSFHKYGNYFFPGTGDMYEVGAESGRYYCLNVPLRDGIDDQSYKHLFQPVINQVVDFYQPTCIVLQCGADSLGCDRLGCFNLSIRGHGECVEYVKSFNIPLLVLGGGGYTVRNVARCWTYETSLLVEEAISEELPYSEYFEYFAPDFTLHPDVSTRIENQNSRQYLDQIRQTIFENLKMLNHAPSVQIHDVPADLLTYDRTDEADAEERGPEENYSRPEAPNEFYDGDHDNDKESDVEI
Sequence of HDAC3/NcoR2 complex (Q9Y618 395-489 partner limits assumed): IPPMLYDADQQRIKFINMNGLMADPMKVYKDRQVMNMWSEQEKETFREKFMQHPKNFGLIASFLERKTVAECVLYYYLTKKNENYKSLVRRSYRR

As usually defined, the pIC50 is the negative decadic logarithm of the IC50, by convention in mol/L. As to `CC(C)(C)OC(=O)Nc1ccc(-c2csc(NC(=O)CCCc3cc(C(=O)NO)no3)n2)cc1` [Compound 3, (4-{2-[4-(3-Hydroxycarbamoyl-isoxazol-5-yl)-butyrylamino]-thiazol-4-yl}-phenyl)-carbamic acid tert-butyl ester], the pIC50 was 5.94 at HDAC2; 6.40 on Human HDAC1 (setting [1]); 7.28 at HDAC10; 7.39 on Human HDAC6; 6.35 at HDAC3/NcoR2 complex.
In general, GI50 refers to the concentration at which growth is held to half of that of the control. Regarding `CCOC(=O)Nc1cccc(-c2csc(NC(=O)CCc3cc(C(=O)NO)no3)n2)c1` [Compound 5, (3-{2-[3-(3-Hydroxycarbamoyl-isoxazol-5-yl)-propionylamino]-thiazol-4-yl}-phenyl)-carbamic acid ethyl ester], the pIC50 at HDAC2 is 5.96; at Human HDAC1 (setting [1]) it was 6.58; at HDAC10 it was 6.57; at Human HDAC6, 8.48; on HDAC3/NcoR2 complex, 6.97. Also, the GI50 in the experiment with L3.6pl was found to be 2100 nM; in the experiment with BxPC3 it was 7000 nM.
As to `CC(C)(C)OC(=O)Nc1cccc(-c2cc(C(=O)NCCc3cc(C(=O)NO)no3)no2)c1` [Compound 7, (3-{3-[2-(3-Hydroxycarbamoyl-isoxazol-5-yl)-ethylcarbamoyl]-isoxazol-5-yl}-phenyl)-carbamic acid tert-butyl ester], the GI50 in the experiment with L3.6pl and in the experiment with BxPC3 was above 50000 nM throughout. For the same compound, the figures for the negative logarithm of the IC50 (pIC50) at Human HDAC1, at Human HDAC6 and at HDAC3/NcoR2 complex were 4.27, 8.11 and 4.01, respectively. The “Inhibition of cell migration, 24 h” value in the experiment with PANC1 cells is recorded as “+”. For the same compound, in the experiment with PANC1 cells, the “Inhibition of cell migration, 48 h” value is reported as “+”.
Consider `CCOC(=O)Nc1ccc(-c2cc(C(=O)NCCc3cc(C(=O)NO)no3)no2)cc1` [Compound 8, (4-{3-[2-(3-Hydroxycarbamoyl-isoxazol-5-yl)-ethylcarbamoyl]-isoxazol-5-yl}-phenyl)-carbamic acid ethyl ester], for which the pIC50 on HDAC2 is 4.38; on Human HDAC1 (setting [1]), 5.41; on HDAC10 it was 4.90; at Human HDAC6, 7.00; at HDAC3/NcoR2 complex it was 5.28. Moreover, the values for the GI50 in the experiment on L3.6pl and with BxPC3 were 47000 nM and above 50000 nM, respectively.
For the compound `CC(C)(C)C(=O)Nc1cccc(-c2cc(C(=O)NCCc3cc(C(=O)NO)no3)no2)c1` [Compound 10, 5-[2-({5-[3-(2,2-Dimethyl-propionylamino)-phenyl]-isoxazole-3-carbonyl}-amino)-ethyl]-isoxazole-3-carboxylic acid hydroxyamide], the “Accumulation of acetylated alpha-tubulin” value in the experiment on acetylated alpha-tubulin is given as “accumulation of acetylated alpha-tubulin”. Besides, the pIC50 against Human HDAC1 is 4.12; on HDAC10 it was 4.40; on Human HDAC6, 7.67. Besides, the “Inhibition of cell migration, 24 h” value with PANC1 cells is given as “−”. In addition, the “Inhibition of cell migration, 48 h” value in the experiment with PANC1 cells was “−”.
In turn, `O=C(NO)c1cc(CCNC(=O)c2cc(-c3cccc(NC(=O)C4CCCCC4)c3)on2)on1` [Compound 11] showed a GI50 in the experiment with L3.6pl above 50000 nM. This compound displayed a GI50 in the experiment on BxPC3 above 50000 nM. Also, the “Accumulation of acetylated alpha-tubulin” value in the experiment on acetylated alpha-tubulin is “accumulation of acetylated alpha-tubulin”. Besides, the pIC50 on Human HDAC6 was 8.17. Further, in the experiment on PANC1 cells, the “Inhibition of cell migration, 24 h” value is given as “+” and the “Inhibition of cell migration, 48 h” value is given as “−”.
For the compound `O=C(NO)c1ccc(CNC(=O)c2cc(-c3ccc(NC(=O)C4CCCCC4)cc3)on2)cc1` [Compound 16, 5-[4-(Cyclohexanecarbonyl-amino)-phenyl]-isoxazole-3-carboxylic acid 4-hydroxycarbamoyl-benzylamide], the pIC50 on HDAC2 was 5.60; at Human HDAC1 (setting [1]), 6.46; on HDAC10, 6.69; on Human HDAC6, 8.27; on HDAC3/NcoR2 complex it was 6.67.
The corresponding values for `O=C(NO)c1ccc(CNC(=O)c2cc(-c3cccc(NC(=O)C4CCCCC4)c3)on2)cc1` [Compound 17, 5-[3-(Cyclohexanecarbonyl-amino)-phenyl]-isoxazole-3-carboxylic acid 4-hydroxycarbamoyl-benzylamide] are 5.37, 6.67, 6.72, 8.59 and 6.17.
In the case of `O=C(NC(Cc1cc(C(=O)NO)no1)Cc1c[nH]c2ccccc12)c1ccc(Cl)cc1` (centres unmarked) [Compound 19, 5-[2-(4-Chloro-benzoylamino)-3-(1H-indol-3-yl)-propyl]-isoxazole-3-carboxylic acid hydroxyamide], the pIC50 against Human HDAC1 was 4.33; on Human HDAC6 it was 6.37; on HDAC3/NcoR2 complex, 4.42.
For `O=C(NO)c1cc(CC(Cc2c[nH]c3ccccc23)NC(=O)C(F)(F)F)on1` (centres unmarked) [Compound 20, 5-[3-(1H-Indol-3-yl)-2-(2,2,2-trifluoro-acetylamino)-propyl]-isoxazole-3-carboxylic acid hydroxyamide], the pIC50 on Human HDAC6 is 5.52; on HDAC3/NcoR2 complex it was 4.38.
Regarding `COc1ccc(C(=O)NC(Cc2cc(C(=O)NO)no2)Cc2c[nH]c3ccccc23)cc1OC` (centres unmarked) [Compound 21, 5-[2-(3,4-Dimethoxy-benzoylamino)-3-(1H-indol-3-yl)-propyl]-isoxazole-3-carboxylic acid hydroxyamide], the figures for the pIC50 against Human HDAC1, at Human HDAC6 and on HDAC3/NcoR2 complex were 4.30, 6.14 and 4.27, respectively.
